Molecular target: TET2 (Homo sapiens (Human), UniProt Q6N021)
Experiment: Determination of TET2 activity in cell (5-hmC dot-blot, TET2-transfected HEK293T cells)
Type: cell-based
Details: 10 μM compound, HEK293T transfected with pCMV6-TET2, 48 h after transfection; in reference to vehicle, corrected with example 1 condition
Procedure: The HEK293T cell line was grown in Dulbecco's Modified Eagle Medium (DMEM) containing 10% (v/v) fetal bovine serum (FBS) and 1% (v/v) penicillin-streptomycin (P/S).
Twenty-four hours prior transfection, 3×10^6 HEK293T cells were seeded in p100 dishes previously coated with 0.001% of poly (1-lysine). One hour before transfection, a 10 μM solution of each compound was prepared in complete medium and 9 mL was added by medium replacement in one p100 dish (by duplicate). A solution of complete medium with DMSO was used as a vehicle control. Then, a transfection mix was prepared diluting 8 μg of pCMV6-TET2 expression vector (ID: RC226438, Origene) with 32 μg of polyethylenimine (PEI 25000, Polysciences, Inc.) in a 150 mM NaCl solution per p100 plate. After 15 min of incubation at rt, 1 mL of the transfection mix was added to each p100 plate. Next day, medium was replaced with a fresh diluted compound solution (10 mL/p100 dish). Forty-eight hours after transfection, cells were trypsinized and pelleted. Each pellet was suspended in 500 μL of DNA lysis buffer (50 mM Tris-HCl pH 8, 10 mM EDTA pH 8, 0.1% Triton X-100, 0.5% Tween-20, 400 μg/mL Proteinase K, 50 μg/mL RNAse), and incubated overnight at 56° C. in a thermal mixer. Next day, genomic DNA (gDNA) was extracted from each sample following a standard phenol-chloroform extraction method.
For each sample, 2 μg of gDNA was diluted in 50 μL of H2O. Then, 50 μL of 2X Denature solution (0.8 M NaOH, 20 mM EDTA) was added to each sample and incubated at 95° C. for 10 min. Samples were immediately placed on ice to cool and mixed with 100 μL of cold 2X Neutralize buffer (2 M ammonium acetate pH 7). Then, samples were incubated on ice for 10 min. DNA two-fold serial dilutions were prepared by mixing 100 μL of each sample with 100 μL of H2O in the next well, and so on. A total of 7 serial dilutions were set up. One hundred microliters of each sample and their respective dilutions were spotted on a positively charged nylon membrane (Amersham Hybond-N+, GE healthcare) in an assembled Bio-Dot apparatus (Bio-Rad). Samples were washed adding 400 μL of 0.4 M NaOH in each well. Then, blotted membrane was removed from the Bio-Dot apparatus and washed with 2×SSC buffer (0.3 M NaCl, 30 mM sodium citrate) for 5 min, air dried for 15 min, and UV-crosslinked (energy 120,000 μJ/cm^2) for 1 min. Afterwards, the blotted membrane was blocked with Blocking solution (5% non-fat milk, 0.1% Tween-20 in PBS1X) for 1 h at rt. Then, the membrane was incubated with the 5-hmC (5-hydroxymethylcytosine) primary antibody (#39769, Active Motif) diluted 1/10,000 in Blocking solution for 1 h at rt. Next, membrane was washed three times for 5 min in PBS1X and incubated with the anti-rabbit-HRP secondary antibody diluted 1/5,000 in blocking solution for 1 h at rt. Finally, the membrane was washed three times for 5 min in PBS1X, developed with SuperSignal West Pico Chemiluminescent Substrate (ThermoFisher Scientific), and exposed to autoradiography films (Fujifilm).
Each dot-blot membrane allows the evaluation of up to 6 different conditions (in duplicate) at the same time. Among these 6 different conditions there is always the condition of the vehicle and our compound of example 1, so in the end we evaluated 4 new compounds per membrane. The density intensity of each dot was quantified using the Image J software. […] Fold-change was calculated in reference to the vehicle condition and corrected with the example 1 condition for each dot-blot membrane.

Compound | Fold change (amount of 5-hmC)
Cc1[nH]c2ccccc2c1-c1csc(NC(=O)Cc2cc(Br)cs2)n1 [Example 19, 2-(4-bromothiophen-2-yl)-N-[4-(2-methyl-1H-indol-3-yl)thiazol-2-yl]acetamide] | 8.4
Cc1[nH]c2ccccc2c1-c1csc(NC(=O)Cc2c[nH]c3ccccc23)n1 [Example 13, 2-(1H-indol-3-yl)-N-[4-(2-methyl-1H-indol-3-yl)thiazol-2-yl]acetamide] | 11.6
Cc1[nH]c2ccccc2c1-c1nc(NC(=O)Cc2cn3ccsc3n2)sc1C [Example 4, 2-(imidazo[2,1-b]thiazol-6-yl)-N-[5-methyl-4-(2-methyl-1H-indol-3-yl)thiazol-2-yl]acetamide] | 9.2
Cc1[nH]c2ccccc2c1-c1csc(NC(=O)Cc2c[nH]c3ccc(F)cc23)n1 [Example 12, 2-(5-fluoro-1H-indol-3-yl)-N-[4-(2-methyl-1H-indol-3-yl)thiazol-2-yl]acetamide] | 16.0
Cc1[nH]c2ccccc2c1-c1csc(NC(=O)Cc2c[nH]c3ccc(O)cc23)n1 [Example 21, 2-(5-hydroxy-1H-indol-3-yl)-N-[4-(2-methyl-1H-indol-3-yl)thiazol-2-yl]acetamide] | 15.3

Source: patent US20240208998A1, “COMPOUNDS FOR USE IN THE TREATMENT OF HYPERPROLIFERATIVE DISORDERS” (FUNDACIÓ PRIVADA INSTITUT D'INVESTIGACIÓ ONCOLÓGICA DE VALL …, priority 2021, published 2024)
